Data: patent US20250154169A1, “COMPOUNDS AND METHODS FOR MODULATING SPLICING” (REMIX THERAPEUTICS INC., priority 2021, published 2025)
Read-outs that look alike come from different tables or passages of the source. Each block holds one compound with its values, some of them ahead of it.

How the values were obtained:
HTT mRNA = experiment: Splicing RT-qPCR assay, HTT canonical (CJ) and alternative (AJ) junction mRNA; format: cell-based, human; settings: Homo sapiens, A673 or K562 cells, 24 hours compound treatment; for IC50: read-out: HTT CJ (IC50, decrease in canonical junction mRNA); for AC50: read-out: HTT AJ (AC50, increase in alternative junction mRNA)
Description: (§1) Compounds described herein were used to modulate RNA transcript abundance in cells. The expression of a target mRNA was measured by detecting the formation of an exon-exon junction in the canonical transcript (CJ). A compound mediated exon-inclusion event was detected by observing an increase in formation of a new junction with an alternative exon (AJ). Real-time qPCR assays were used to detect these splicing switches and interrogate the potency of various compounds towards different target genes. A high-throughput real time quantitative PCR (RT-qPCR) assay was developed to measure these two isoforms of the mRNA (CJ and AJ) for exemplary genes, such as HTT, SMN2, and MYB, together with a control housekeeping gene, GAPDH or GUSB or PPIA, used for normalization. Briefly, the A673 or K562 cell line was treated with various compounds described herein (e.g., compounds of Formula (I)). After treatment, the levels of the HTT, MYB, or SMN2 mRNA targets were determined from each sample of cell lysate by cDNA synthesis followed by qPCR.
(§2) • Cells-to-CT 1-step kit: ThermoFisher A25602, Cells-to-CT lysis reagent: ThermoFisher 4391851C, TaqMan™ Fast Virus 1-Step Master Mix: ThermoFisher 4444436 • GAPDH: VIC-PL, ThermoFisher 4326317E (Assay: Hs99999905_m1)—used for K562/suspension cell lines • GUSB: VIC-PL, ThermoFisher 4326320E (Assay: Hs99999908_m1)—used for K562/suspension cell lines • PPIA: VIC-PL, ThermoFisher 4326316E (Assay: Hs99999904_m1)—used for A673/adherent cell lines
(§3) The A673 cell line was cultured in DMEM with 10% FBS. Cells were diluted with full growth media and plated in a 96-well plate (15,000 cells in 100 ul media per well). The plate was incubated at 37° C. with 5% CO2 for 24 hours to allow cells to adhere. An 11-point 3-fold serial dilution of the compounds was made in DMSO then diluted in media in an intermediate plate. Compounds were transferred from the intermediate plate to the cell plate with the top dose at a final concentration of 10 uM in the well. Final DMSO concentration was kept at or below 0.25%. The cell plate was returned to the incubator at 37° C. with 5% CO2 for an additional 24 hours.
(§4) The K562 cell line was cultured in IMDM with 10% FBS. For K562, cells were diluted with full growth media and plated in either a 96-well plate (50,000 cells in 50 uL media per well) or a 384-well plate (8,000-40,000 cells in 45 uL media per well). An 11-point 3-fold serial dilution of the compounds were made in DMSO then diluted in media in an intermediate plate. Compound was transferred from the intermediate plate to the cell plate with the top dose at a final concentration of 10 uM in the well. Final DMSO concentration was kept at or below 0.25%. Final volume was 100 uL for 96-well plate and 50 uL for 384-well plate. The cell plate was then placed in an incubator at 37° C. with 5% CO2 for 24 hours.
(§5) The cells were then gently washed with 50 uL-100 uL cold PBS before proceeding to addition of lysis buffer. 30 uL-50 uL of room temperature lysis buffer with DNAse I (and optionally RNAsin) was added to each well. Cells were shaken/mixed thoroughly at room temperature for 5-10 minutes for lysis to take place and then 3 uL-5 uL of room temperature stop solution was added and wells were shaken/mixed again. After 2-5 minutes, the cell lysate plate was transferred to ice for RT-qPCR reaction setup. The lysates could also be frozen at −80° C. for later use.
(§6) In some cases, a direct lysis buffer was used. An appropriate volume of 3× lysis buffer (10 mM Tris, 150 mM NaCl, 1.5%-2.5% Igepal and 0.1-1 U/uL RNAsin, pH 7.4) was directly added to either K562 or A673 cells in media and mixed by pipetting 3 times. The plates were then incubated at room temperature with shaking/rocking for 20-50 minutes to allow for lysis to take place. After this time, the cell lysate plate was transferred to ice to set up for the RT-qPCR reactions. The lysates could also be frozen at −80° C. for later use. […]

MYB mRNA = experiment: Splicing RT-qPCR assay, MYB canonical (CJ) and alternative (AJ) junction mRNA; format: cell-based, human; settings: Homo sapiens, A673 or K562 cells, 24 hours compound treatment, RT-qPCR; for AC50: read-out: MYB AJ (AC50, increase in alternative junction mRNA); for IC50: read-out: MYB CJ (IC50, decrease in canonical junction mRNA)
Description: as §1, §2, §3, §4, §5, §6

- IC50 (HTT mRNA; 24 h): 1000 to 10000 nM
- IC50 (MYB mRNA; 24 h): 100 to 1000 nM
SMILES: CCN(CC)C1(C)CCN(c2ccc(C(=O)Nc3cc(F)c4nc(C)cn4c3)c3nn(CC)cc23)CC1 [Compound 517, 4-[4-(diethylamino)-4-methylpiperidin-1-yl]-2-ethyl-N-{8-fluoro-2-methylimidazo[1,2-a]pyridin-6-yl}indazole-7-carboxamide trifluoroacetic acid]
- AC50 (HTT mRNA): > 10000 nM
- AC50 (MYB mRNA; 24 h): 100 to 1000 nM

- IC50 (HTT mRNA; 24 h): 100 to 1000 nM
- IC50 (MYB mRNA; 24 h): < 100 nM
SMILES: CCn1cc2c(N3CCC(CC)(NC)CC3)ccc(C(=O)Nc3cc(F)c4nc(C)cn4c3)c2n1 [Compound 515, 2-ethyl-4-[4-ethyl-4-(methylamino)piperidin-1-yl]-N-{8-fluoro-2-methylimidazo[1,2-a]pyridin-6-yl}indazole-7-carboxamide]
- AC50 (HTT mRNA): 100 to 1000 nM
- AC50 (MYB mRNA; 24 h): < 100 nM

- IC50 (HTT mRNA; 24 h): > 10000 nM
- IC50 (MYB mRNA; 24 h): 1000 to 10000 nM
SMILES: CCn1cc2c(N3CCC(C)(N)C3)ccc(C(=O)Nc3cc(F)c4nc(C)cn4c3)c2n1 (stereo not drawn) [Compound 539, 4-(3-amino-3-methylpyrrolidin-1-yl)-2-ethyl-N-{8-fluoro-2-methylimidazo[1,2-a]pyridin-6-yl}indazole-7-carboxamide]
- AC50 (HTT mRNA): > 10000 nM
- AC50 (MYB mRNA; 24 h): 1000 to 10000 nM

- IC50 (HTT mRNA; 24 h): > 10000 nM
- IC50 (MYB mRNA; 24 h): 1000 to 10000 nM
SMILES: CCn1cc2c(N3CCC(C)(NC)C3)ccc(C(=O)Nc3cc(F)c4nc(C)cn4c3)c2n1 (stereo not drawn) [Compound 544, 2-ethyl-N-{8-fluoro-2-methylimidazo[1,2-a]pyridin-6-yl}-4-[3-methyl-3-(methylamino)pyrrolidin-1-yl]indazole-7-carboxamide]
- AC50 (HTT mRNA): > 10000 nM
- AC50 (MYB mRNA; 24 h): 1000 to 10000 nM

- IC50 (HTT mRNA; 24 h): 1000 to 10000 nM
- IC50 (MYB mRNA; 24 h): < 100 nM
SMILES: CCn1cc2c(N3CCC(NC4CCC4)CC3)ccc(C(=O)Nc3cc(F)c4nc(C)cn4c3)c2n1 [Compound 543, 4-[4-(cyclobutylamino)piperidin-1-yl]-2-ethyl-N-{8-fluoro-2-methylimidazo[1,2-a]pyridin-6-yl}indazole-7-carboxamide]
- AC50 (HTT mRNA): 1000 to 10000 nM
- AC50 (MYB mRNA; 24 h): < 100 nM

- IC50 (HTT mRNA; 24 h): > 10000 nM
- IC50 (MYB mRNA; 24 h): 100 to 1000 nM
SMILES: CCNC1CCN(c2ccc(C(=O)Nc3cc(F)c4nc(C)cn4c3)c3nn(CC)cc23)C1 (stereo not drawn) [Compound 396, 2-ethyl-4-[3-(ethylamino)pyrrolidin-1-yl]-N-{8-fluoro-2-methylimidazo[1,2-a]pyridin-6-yl}indazole-7-carboxamide]
- AC50 (HTT mRNA): > 10000 nM
- AC50 (MYB mRNA; 24 h): < 100 nM

- IC50 (HTT mRNA; 24 h): 1000 to 10000 nM
- IC50 (MYB mRNA; 24 h): 100 to 1000 nM
SMILES: Cc1cn2cc(NC(=O)c3ccc(N4CCC(N)(CF)CC4)c4cn(C)nc34)cc(F)c2n1 [Compound 397]
- AC50 (HTT mRNA): 1000 to 10000 nM
- AC50 (MYB mRNA; 24 h): 100 to 1000 nM

More lines, now with the values behind:

SMILES: Cc1cn2cc(NC(=O)c3ccc(N4CCc5[nH]ccc5C4)c4cn(C)nc34)cc(F)c2n1 [Compound 390, N-{8-fluoro-2-methylimidazo[1,2-a]pyridin-6-yl}-2-methyl-4-{1H,4H,6H,7H-pyrrolo[3,2-c]pyridin-5-yl}indazole-7-carboxamide]
- IC50 (HTT mRNA; 24 h): > 10000 nM
- AC50 (HTT mRNA): > 10000 nM
- AC50 (MYB mRNA; 24 h): > 10000 nM
- IC50 (MYB mRNA; 24 h): > 10000 nM

SMILES: Cc1cn2cc(NC(=O)c3ccc(N4CCN[C@@H](C5CC5)C4)c4cn(C)nc34)cc(F)c2n1 [Compound 606, 4-[(3S)-3-cyclopropylpiperazin-1-yl]-N-{8-fluoro-2-methylimidazo[1,2-a]pyridin-6-yl}-2-methylindazole-7-carboxamide]
- IC50 (HTT mRNA; 24 h): 100 to 1000 nM
- AC50 (HTT mRNA): 1000 to 10000 nM
- AC50 (MYB mRNA; 24 h): 100 to 1000 nM
- IC50 (MYB mRNA; 24 h): 100 to 1000 nM

SMILES: CCn1cc2c(N3CCN[C@H](C4CC4)C3)ccc(C(=O)Nc3cc(F)c4nc(C)cn4c3)c2n1 [Compound 542, 4-[(3R)-3-cyclopropylpiperazin-1-yl]-2-ethyl-N-{8-fluoro-2-methylimidazo[1,2-a]pyridin-6-yl}indazole-7-carboxamide]
- IC50 (HTT mRNA; 24 h): 1000 to 10000 nM
- AC50 (HTT mRNA): 1000 to 10000 nM
- AC50 (MYB mRNA; 24 h): 100 to 1000 nM
- IC50 (MYB mRNA; 24 h): 100 to 1000 nM

SMILES: Cc1cn2cc(NC(=O)c3ccc(N4CC[C@@H](NC5(CO)CC5)C4)c4cn(C)nc34)cc(F)c2n1 [Compound 643]
- IC50 (HTT mRNA; 24 h): > 10000 nM
- AC50 (HTT mRNA): > 10000 nM
- AC50 (MYB mRNA; 24 h): 100 to 1000 nM
- IC50 (MYB mRNA; 24 h): 100 to 1000 nM

SMILES: CCn1cc2c(N3C[C@@H](C4CC4)N[C@@H](C)C3)ccc(C(=O)Nc3cc(F)c4nc(C)cn4c3)c2n1 [Compound 617, 4-((3R,5S)-3-cyclopropyl-5-methylpiperazin-1-yl)-2-ethyl-N-(8-fluoro-2-methylimidazo[1,2-a]pyridin-6-yl)-2H-indazole-7-carboxamide]
- IC50 (HTT mRNA; 24 h): 1000 to 10000 nM
- AC50 (HTT mRNA): > 10000 nM
- AC50 (MYB mRNA; 24 h): 1000 to 10000 nM
- IC50 (MYB mRNA; 24 h): 100 to 1000 nM

SMILES: Cc1nc2c(F)cc(NC(=O)c3ccc(N4CCNCC4)c4cn(C)nc34)cc2[nH]1 [Compound 509]
- IC50 (HTT mRNA; 24 h): > 10000 nM
- AC50 (HTT mRNA): > 10000 nM
- AC50 (MYB mRNA; 24 h): 1000 to 10000 nM
- IC50 (MYB mRNA; 24 h): 1000 to 10000 nM

SMILES: Cc1cn2cc(NC(=O)c3ccc(N4CC[C@@H](N5CCOCC5)C4)c4cn(C)nc34)cc(F)c2n1 [Compound 552, N-{8-fluoro-2-methylimidazo[1,2-a]pyridin-6-yl}-2-methyl-4-[(3R)-3-(morpholin-4-yl)pyrrolidin-1-yl]indazole-7-carboxamide]
- IC50 (HTT mRNA; 24 h): 100 to 1000 nM
- AC50 (HTT mRNA): 100 to 1000 nM
- AC50 (MYB mRNA; 24 h): 100 to 1000 nM
- IC50 (MYB mRNA; 24 h): 100 to 1000 nM

SMILES: CN[C@@H]1CCN(c2ccc(C(=O)Nc3nc(OC)c4nn(C)cc4n3)c3nn(C)cc23)C1 [Compound 624, N-{7-methoxy-2-methylpyrazolo[4,3-d]pyrimidin-5-yl}-2-methyl-4-[(3R)-3-(methylamino)pyrrolidin-1-yl]indazole-7-carboxamide]
- IC50 (HTT mRNA; 24 h): 1000 to 10000 nM
- AC50 (HTT mRNA): 1000 to 10000 nM
- AC50 (MYB mRNA; 24 h): 1000 to 10000 nM
- IC50 (MYB mRNA; 24 h): 1000 to 10000 nM

SMILES: Cc1cn2cc(NC(=O)c3ccc(N4CCNCC4)c4c[nH]nc34)cc(F)c2n1 [Compound 490, N-{8-fluoro-2-methylimidazo[1,2-a]pyridin-6-yl}-4-(piperazin-1-yl)-2H-indazole-7-carboxamide]
- IC50 (HTT mRNA; 24 h): > 10000 nM
- AC50 (HTT mRNA): > 10000 nM
- AC50 (MYB mRNA; 24 h): 1000 to 10000 nM
- IC50 (MYB mRNA; 24 h): 1000 to 10000 nM

SMILES: Cc1cn2cc(NC(=O)c3ccc(N4CC[C@@H](NCc5ncccn5)C4)c4cn(C)nc34)cc(F)c2n1 [Compound 594, N-{8-fluoro-2-methylimidazo[1,2-a]pyridin-6-yl}-2-methyl-4-[(3R)-3-[(pyrimidin-2-ylmethyl)amino]pyrrolidin-1-yl]indazole-7-carboxamide]
- IC50 (HTT mRNA; 24 h): > 10000 nM
- AC50 (HTT mRNA): > 10000 nM
- AC50 (MYB mRNA; 24 h): 1000 to 10000 nM
- IC50 (MYB mRNA; 24 h): 100 to 1000 nM

SMILES: Cc1cn2cc(NC(=O)c3ccc(N4CCC(N5C6COCC65)C4)c4cn(C)nc34)cc(F)c2n1 (stereo not drawn) [Compound 629]
- AC50 (HTT mRNA): 1000 to 10000 nM
- IC50 (HTT mRNA): 1000 to 10000 nM
- AC50 (MYB mRNA): 1000 to 10000 nM
- IC50 (MYB mRNA): 1000 to 10000 nM
